Marks after values point to notes of the source that are not given here.
What was measured:
Assay type in all cases: in vivo
Conditions in all cases: 100 = 100% disease control
Alternaria solani = experiment: Test D: tomato early blight, sprayed the day before inoculation, visual disease rating
Summary of the method: (§1)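 Acetone solution (3% of final volume) of each compound is suspended in 50/50 acetone/water with 250 ppm Trem® 014. Plants are sprayed to run-off at 200 ppm, equivalent to 500 g/ha, or at 40 ppm for starred values.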

Septoria tritici = experiment: Test G: wheat leaf blotch on wheat seedlings, sprayed the day before inoculation, visual disease rating
Summary of the method: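 Compounds dissolved in acetone (3% of final volume), then suspended in 50/50 acetone/water with 250 ppm Trem® 014 and sprayed to run-off on seedlings at 200 ppm (≈500 g/ha) or 40 ppm where marked. Inoculation with spores followed next day; visual rating after 48 h saturated at 24° C plus 19 days at 20° C.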

[1] = tested on: Erysiphe graminis f. sp. tritici; experiment: Test J: wheat powdery mildew on wheat seedlings, sprayed the day before inoculation, visual disease rating
Summary of the method: as §1

Septoria nodorum = experiment: Test F: wheat glume blotch on wheat seedlings, sprayed the day before inoculation, visual disease rating
Summary of the method: as §1

[2] = tested on: Puccinia recondita f. sp. tritici; experiment: Test H: wheat leaf rust, test suspension sprayed after inoculation of wheat seedlings, visual disease rating
Summary of the method: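 Wheat seedlings inoculated with P. recondita spores, held 24 h saturated at 20 °C, then 2 days in growth chamber at 20 °C; compound suspension (acetone/water with Trem 014) sprayed to run-off afterwards. Rated visually; 200 ppm (≈500 g/ha) unless marked *, which denotes 40 ppm.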

Botrytis cinerea = experiment: Test C: tomato Botrytis on tomato seedlings, sprayed the day before inoculation, visual disease rating
Summary of the method: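 Disease ratings refer to tomato seedlings treated by run-off spraying with compound suspensions, mostly 200 ppm (500 g/ha equivalent) and in marked cases 40 ppm. Carrier: acetone/purified water 50/50 with 250 ppm polyhydric alcohol ester surfactant, after predissolving in acetone.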

[3] = tested on: Puccinia recondita f. sp. tritici; experiment: Test I: wheat leaf rust on wheat seedlings, sprayed the day before inoculation, visual disease rating
Summary of the method: as §1

[4] = 200 ppm, 0 = no control relative to controls
[5] = 40 ppm (marked *), 0 = no control

SMILES	Test D disease control rating (Alternaria solani; 200 ppm, 0 = no control)	Test G disease control rating (Septoria tritici; 200 ppm, 0 = no control)	Test J disease control rating ([1]; 200 ppm, 0 = no control)	Test F disease control rating (Septoria nodorum; 200 ppm, 0 = no control)	Test H disease control rating ([2]; 200 ppm, 0 = no control)	Test C disease control rating (Botrytis cinerea; 200 ppm, 0 = no control)	Test I disease control rating ([3]; 200 ppm, 0 = no control)	Test D disease control rating (Alternaria solani; [4])	Test G disease control rating (Septoria tritici; [4])	Test J disease control rating [1, 4]	Test F disease control rating (Septoria nodorum; [4])	Test H disease control rating [2, 4]	Test C disease control rating (Botrytis cinerea; [4])	Test I disease control rating [3, 4]	other results
COc1cc(F)c(-c2c(Cl)nc(C)n2Cc2ccc(Cl)cc2)c(F)c1 [compound 287]	100%	95%	99%	99%	17%	100%	100%								
COc1ccc(F)c(-c2c(Cl)nc(Cl)n2Cc2ccc(Cl)cc2)c1F [compound 288]	91%	94%	99%	73%	32%	100%	96%								
COc1ccc(F)c(-c2c(Cl)nc(Br)n2Cc2ccc(Cl)cc2)c1F [compound 289]	96%	94%	97%	0%	11%	100%	94%								
Clc1ccc(-c2c(Cl)nc(Br)n2Cc2cccc(Cl)c2)cc1 [compound 290]	0%	85%	0%	0%	11%	95%	19%								
COc1cc(F)c(-c2c(Cl)nc(Cl)n2Cc2ccc(C)cc2)c(F)c1 [compound 291]	80%	94%	94%	0%	6%	99%	98%								
COc1cc(F)c(-c2c(Cl)nc(Br)n2Cc2ccc(C)cc2)c(F)c1 [compound 292]	98%	93%	99%	69%	11%	99%	99%								
Cc1nc(Cl)c(-c2c(F)ccc(F)c2F)n1Cc1ccc(Cl)cc1 [compound 293]	91%	95%	100%	0%	6%	99%	99%								
COc1ccc(F)c(-c2c(Cl)nc(C)n2Cc2ccc(Cl)cc2)c1F [compound 294]	100%	96%	97%	98%	11%	99%	98%								
Cc1nc(Cl)c(-c2ccc(Cl)cc2)n1Cc1cccc(Cl)c1 [compound 295]	0%	94%	0%	0%	0%	99%	80%								
COc1cc(F)c(-c2c(Cl)nc(C)n2Cc2ccc(C)cc2)c(F)c1 [compound 296]	96%	96%	97%	86%	17%	100%	99%								
COc1ccc(F)c(-c2c(Cl)ncn2-c2ccc(F)cc2)c1F [compound 299]								99%	97%	99%	90%	0%	99%	99%	
COc1ccc(F)c(-c2c(Cl)ncn2-c2cccc(C)c2)c1F [compound 300]								98%	91%	99%	0%	48%	99%	97%	
Fc1ccc(-n2c(Br)nc(Br)c2-c2ccc(Cl)c(F)c2)c(Cl)c1 [compound 301]								94%	95%	96%	0%	6%	100%	91%	
Fc1ccc(-n2c(Cl)nc(Cl)c2-c2ccc(Cl)c(F)c2)c(Cl)c1 [compound 302]								100%	94%	100%	0%	17%	100%	98%	
Cc1nc(Cl)c(-c2c(F)cccc2F)n1-c1ccc2ccccc2c1 [compound 303]															Test D disease control rating (Alternaria solani; [5]): 99* %; Test G disease control rating (Septoria tritici; [5]): 96* %; Test J disease control rating [1, 5]: 81* %; Test F disease control rating (Septoria nodorum; [5]): 98* %; Test H disease control rating [2, 5]: 0* %; Test C disease control rating (Botrytis cinerea; [5]): 100* %; Test I disease control rating [3, 5]: 74* %
Cc1nc(Cl)c(-c2c(F)cccc2F)n1-c1ccc(Cl)c2ccccc12 [compound 304]															Test D disease control rating (Alternaria solani; [5]): 0* %; Test G disease control rating (Septoria tritici; [5]): 27* %; Test J disease control rating [1, 5]: 0* %; Test F disease control rating (Septoria nodorum; [5]): 0* %; Test H disease control rating [2, 5]: 0* %; Test C disease control rating (Botrytis cinerea; [5]): 0* %; Test I disease control rating [3, 5]: 0* %
CCc1nc(C)n(-c2ccc(Cl)cc2)c1-c1c(F)cccc1F [compound 305]															Test D disease control rating (Alternaria solani; [5]): 0* %; Test G disease control rating (Septoria tritici; [5]): 23* %; Test J disease control rating [1, 5]: 0* %; Test F disease control rating (Septoria nodorum; [5]): 0* %; Test H disease control rating [2, 5]: 11* %; Test C disease control rating (Botrytis cinerea; [5]): 63* %; Test I disease control rating [3, 5]: 0* %
Fc1ccc(-n2c(Br)nc(Br)c2-c2ccc(Cl)cc2)c(Cl)c1 [compound 306]								96%	94%	99%	0%	6%	99%	91%	
Cc1nc(C)n(-c2ccc(F)cc2Cl)c1-c1ccc(Cl)cc1 [compound 307]								99%	97%	99%	0%	11%	100%	97%	
Cc1nc(C)n(-c2c(F)cc(F)cc2F)c1-c1ccc(Cl)cc1 [compound 308]															Test D disease control rating (Alternaria solani; [5]): 100* %; Test G disease control rating (Septoria tritici; [5]): 88* %; Test J disease control rating [1, 5]: 0* %; Test F disease control rating (Septoria nodorum; [5]): 0* %; Test H disease control rating [2, 5]: 11* %; Test C disease control rating (Botrytis cinerea; [5]): 99* %; Test I disease control rating [3, 5]: 41* %
COc1ccc(F)c(-c2c(Cl)nc(Cl)n2-c2ccc(Cl)cc2)c1F [compound 309]								100%	97%	100%	100%	11%	100%	100%	
